Drawing on ChEMBL document CHEMBL1152779, “Synthesis and applications of polyamine amino acid residues: improving the bioactivity of an analgesic neuropeptide, neurotensin” (J Med Chem, 2009), this text covers Activity and Kd for three compounds.

The source made the active and inactive calls. No cut-off for these calls is given here. Numbered stars: 1 amine (or outer) side, 2 acyl side, 3 side chain; on linkers, the order of the positions; unused ones are H or OH. Square brackets hold non-standard residues; d marks the D form. Peptide text beside a SMILES is read from it. X1 = NCCCNCCCCNCCCNCCCNCCCC[C@H](N[*:1])C(=O)[*:2]; X2 = O=C([C@H](Cc1cccc2cc[nH]c12)N[*:1])[*:2]; NMeR = CN[C@@H](CCCNC(=N)N)C(=O)O; Tle = CC(C)(C)[C@H](N)C(=O)O

Assay [1] has as its system Mus musculus. The assay is described as follows: Analgesic activity against formalin-induced paw pain in mouse assessed as effect on duration of paw licking at 4 mg/kg, ip 1 hr before formalin challenge. Type of assay: functional, organism-based. Details: dose 4 mg/kg.
In assay [2] the test system is Mus musculus. Description: Analgesic activity against formalin-induced paw pain in mouse assessed as elimination of inflammatory phase at 4 mg/kg, ip 1 hr before formalin challenge. The class given is functional, organism-based. Also noted: dose 4 mg/kg.
Assay [3] concerns the target Neurotensin receptor type 1 (Homo sapiens, UniProt P30989). Description: Binding affinity to human recombinant NTS1 in HEK293T cells by competitive binding assay. Type of assay: cell-based, HEK-293T.

Neurotensin receptor type 1, sequence (P30989 whole entry): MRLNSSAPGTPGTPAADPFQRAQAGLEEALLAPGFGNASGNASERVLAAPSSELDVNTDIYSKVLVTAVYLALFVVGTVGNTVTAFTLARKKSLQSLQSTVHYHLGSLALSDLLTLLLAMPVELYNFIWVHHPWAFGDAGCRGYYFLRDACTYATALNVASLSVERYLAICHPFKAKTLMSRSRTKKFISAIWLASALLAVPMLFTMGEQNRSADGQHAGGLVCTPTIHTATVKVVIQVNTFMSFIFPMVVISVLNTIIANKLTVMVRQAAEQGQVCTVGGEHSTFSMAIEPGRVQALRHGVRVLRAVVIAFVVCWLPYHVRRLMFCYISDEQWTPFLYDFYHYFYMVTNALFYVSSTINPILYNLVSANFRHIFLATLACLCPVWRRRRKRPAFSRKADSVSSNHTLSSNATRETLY

Regarding `CC[C@H](C)[C@H](NC(=O)[C@H](Cc1ccc(O)cc1)NC(=O)[C@@H]1CCCN1C(=O)[C@H](CCCCN)NC(=O)[C@H](CCCCN)NC(=O)[C@H](CCCCNCCCNCCCNCCCCNCCCN)NC(C)=O)C(=O)N[C@@H](CC(C)C)C(=O)O` (Ac-[X1]KKPYIL-OH), the result in assay [1] and in assay [2] was Active.

The Kd is the free concentration of one partner at which half of the binding sites on the other are occupied at equilibrium, for simple one-to-one binding. Consider `CN[C@@H](CCCN=C(N)N)C(=O)N[C@@H](CCCCN)C(=O)N1CCC[C@H]1C(=O)N[C@@H](Cc1cccc2cc[nH]c12)C(=O)N[C@H](C(=O)N[C@@H](CC(C)C)C(=O)O)C(C)(C)C` (H-[NMeR]KP[X2][Tle]L-OH), for which the Kd in assay [3] was 1.55 nM. For `CC[C@H](C)[C@@H]1NC(=O)[C@H](Cc2ccc(O)cc2)NC(=O)[C@@H]2CCCN2C(=O)[C@H](CCCCN)NC(=O)[C@H](CCCCN)NC(=O)[C@H](CC(C)C)NC(=O)[C@H]([C@@H](C)CC)NC(=O)[C@H](Cc2ccc(O)cc2)NC(=O)[C@@H]2CCCN2C(=O)[C@H](CCCCN)NC(=O)[C@H](CCCCN)NC(=O)[C@H](CC(C)C)NC1=O` (cyclo(ILKKPYILKKPY)), in assay [3], the Kd is 150 nM.
